In patent US20090118332A1, “Therapeutic Agents - 551” (AstraZeneca AB, priority 2006, published 2009):

Molecular target: T1, human Fatty Acid Synthase (Homo sapiens, UniProt P49327)
T1 construct: made in house
Test: Human FAS enzyme assay (decrease in NADPH fluorescence)
Type: biochemical
Conditions: % inhibition at a concentration of 100 μmolar
In short: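 In-house human FAS was preincubated with compound and NADPH for 15 min at room temperature in 0.1 M Tris pH 7.5 with EDTA, glutathione and BSA. Malonyl CoA and acetyl CoA (500 μM and 150 μM in the added mix) were then added for 60 min. IC50 came from time-zero-subtracted NADPH fluorescence (340/460 nm).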

T1 sequence (P49327 whole entry): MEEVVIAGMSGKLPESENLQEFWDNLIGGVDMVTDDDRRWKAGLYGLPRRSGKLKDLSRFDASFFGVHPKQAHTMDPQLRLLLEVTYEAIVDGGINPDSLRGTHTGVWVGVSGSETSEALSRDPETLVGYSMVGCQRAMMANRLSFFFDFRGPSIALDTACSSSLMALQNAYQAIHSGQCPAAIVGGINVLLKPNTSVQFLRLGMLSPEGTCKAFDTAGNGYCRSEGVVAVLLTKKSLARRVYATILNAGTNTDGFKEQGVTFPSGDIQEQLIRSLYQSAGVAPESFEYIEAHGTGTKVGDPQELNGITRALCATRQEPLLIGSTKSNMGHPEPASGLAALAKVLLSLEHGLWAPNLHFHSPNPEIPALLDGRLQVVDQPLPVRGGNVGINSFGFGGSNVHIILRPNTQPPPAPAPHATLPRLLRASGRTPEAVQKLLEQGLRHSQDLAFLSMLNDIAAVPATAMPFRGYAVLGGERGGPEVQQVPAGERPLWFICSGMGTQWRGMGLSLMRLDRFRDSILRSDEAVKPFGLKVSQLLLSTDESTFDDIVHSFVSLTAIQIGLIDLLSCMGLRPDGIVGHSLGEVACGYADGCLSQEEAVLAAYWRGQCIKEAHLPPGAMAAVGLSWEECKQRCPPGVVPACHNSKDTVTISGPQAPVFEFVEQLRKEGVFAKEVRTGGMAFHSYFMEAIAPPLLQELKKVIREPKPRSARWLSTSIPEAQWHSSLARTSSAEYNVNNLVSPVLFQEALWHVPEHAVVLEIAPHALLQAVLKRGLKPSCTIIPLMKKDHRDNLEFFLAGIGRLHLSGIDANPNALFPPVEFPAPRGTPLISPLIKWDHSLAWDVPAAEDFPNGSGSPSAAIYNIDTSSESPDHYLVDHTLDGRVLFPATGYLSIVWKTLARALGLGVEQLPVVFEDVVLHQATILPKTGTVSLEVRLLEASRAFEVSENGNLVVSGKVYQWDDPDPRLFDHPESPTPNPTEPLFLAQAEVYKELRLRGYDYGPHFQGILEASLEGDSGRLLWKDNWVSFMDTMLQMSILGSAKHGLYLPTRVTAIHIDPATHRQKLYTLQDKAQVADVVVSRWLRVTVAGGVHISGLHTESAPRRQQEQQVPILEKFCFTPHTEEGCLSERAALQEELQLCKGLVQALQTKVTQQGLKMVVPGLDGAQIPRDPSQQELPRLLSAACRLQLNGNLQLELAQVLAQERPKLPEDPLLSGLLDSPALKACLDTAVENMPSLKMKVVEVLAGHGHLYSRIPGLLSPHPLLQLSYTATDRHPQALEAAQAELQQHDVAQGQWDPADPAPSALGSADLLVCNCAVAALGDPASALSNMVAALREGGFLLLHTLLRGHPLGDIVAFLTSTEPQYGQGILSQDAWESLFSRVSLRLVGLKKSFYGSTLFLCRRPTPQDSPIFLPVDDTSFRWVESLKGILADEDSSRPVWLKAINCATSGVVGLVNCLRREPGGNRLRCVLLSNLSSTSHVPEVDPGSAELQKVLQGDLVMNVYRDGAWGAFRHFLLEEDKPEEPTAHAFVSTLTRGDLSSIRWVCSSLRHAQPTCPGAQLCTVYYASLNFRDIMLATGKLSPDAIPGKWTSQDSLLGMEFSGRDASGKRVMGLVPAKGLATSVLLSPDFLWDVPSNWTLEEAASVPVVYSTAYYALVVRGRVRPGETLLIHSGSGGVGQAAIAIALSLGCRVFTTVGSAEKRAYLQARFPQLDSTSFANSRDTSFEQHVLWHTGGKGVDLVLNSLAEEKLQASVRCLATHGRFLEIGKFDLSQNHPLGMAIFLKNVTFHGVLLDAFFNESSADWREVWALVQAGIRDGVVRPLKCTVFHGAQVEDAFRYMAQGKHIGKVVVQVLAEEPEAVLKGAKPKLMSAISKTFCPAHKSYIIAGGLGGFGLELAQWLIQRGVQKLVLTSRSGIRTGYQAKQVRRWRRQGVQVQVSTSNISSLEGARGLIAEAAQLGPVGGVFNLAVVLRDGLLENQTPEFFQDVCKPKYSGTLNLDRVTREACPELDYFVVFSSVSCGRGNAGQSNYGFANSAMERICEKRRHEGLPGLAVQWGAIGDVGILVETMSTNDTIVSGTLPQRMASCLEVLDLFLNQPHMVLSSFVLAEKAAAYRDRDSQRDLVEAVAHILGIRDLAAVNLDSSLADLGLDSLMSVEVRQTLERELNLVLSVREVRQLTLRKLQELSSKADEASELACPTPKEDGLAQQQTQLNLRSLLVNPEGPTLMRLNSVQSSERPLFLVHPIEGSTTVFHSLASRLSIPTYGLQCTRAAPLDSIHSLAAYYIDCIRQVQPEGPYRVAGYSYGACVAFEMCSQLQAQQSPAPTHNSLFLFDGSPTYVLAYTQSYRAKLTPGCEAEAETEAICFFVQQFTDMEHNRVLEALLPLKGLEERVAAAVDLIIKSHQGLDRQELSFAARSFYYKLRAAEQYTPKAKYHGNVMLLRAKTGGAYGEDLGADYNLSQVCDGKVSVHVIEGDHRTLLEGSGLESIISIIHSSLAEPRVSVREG

Compound	inhibition at 100 µM [%]
Cc1ccc(C(=O)N2CCC(c3ccc(C#N)cc3)CC2)cc1NC(=O)NCCNC(N)=O [Example 234, 3-[2-(carbamoylamino)ethyl]-1-[5-[4-(4-cyanophenyl)piperidine-1-carbonyl]-2-methyl-phenyl]urea]	91.5
CCCNC(=O)CCCNC(=O)Nc1cc(C(=O)N2CCC(c3ccc(C#N)cc3)CC2)ccc1C [Example 235, 4-[[5-[4-(4-cyanophenyl)piperidine-1-carbonyl]-2-methyl-phenyl]carbamoylamino]-N-propyl-butanamide]	95.8
COC(=O)CNC(=O)CNC(=O)Nc1cc(C(=O)N2CCC(c3ccc(C#N)cc3)CC2)ccc1C [Example 237, Methyl 2-[[2-[[5-[4-(4-cyanophenyl)piperidine-1-carbonyl]-2-methyl-phenyl]carbamoylamino]acetyl]amino]acetate]	90.9
Cc1ccc(C(=O)N2CCC(c3ccc(C#N)cc3)CC2)cc1NC(=O)NCC(=O)N(C)C [Example 238, 2-[[5-[4-(4-cyanophenyl)piperidine-1-carbonyl]-2-methyl-phenyl]carbamoylamino]-N,N-dimethyl-acetamide]	89.9
Cc1ccc(C(=O)N2CCC(c3ccc(C#N)cc3)CC2)cc1NC(=O)N[C@@H](CCS(C)(=O)=O)C(=O)O [Example 240, (2S)-2-[[5-[4-(4-cyanophenyl)piperidine-1-carbonyl]-2-methyl-phenyl]carbamoylamino]-4-methylsulfonyl-butanoic acid]	99.3
Cc1ccc(C(=O)N2CCC(c3ccc(C#N)cc3)CC2)cc1NC(=O)NCCC(=O)Nc1cnoc1C [Example 241, 3-[[5-[4-(4-cyanophenyl)piperidine-1-carbonyl]-2-methyl-phenyl]carbamoylamino]-N-(5-methyl-1,2-oxazol-4-yl)propanamide]	92.4
Cc1ccc(C(=O)N2CCC(c3ccc(C#N)cc3)CC2)cc1NC(=O)NCCC(=O)N(CCO)CCO [Example 242, 3-[[5-[4-(4-cyanophenyl)piperidine-1-carbonyl]-2-methyl-phenyl]carbamoylamino]-N,N-bis(2-hydroxyethyl)propanamide]	90.6
Cc1ccc(C(=O)N2CCC(c3ccc(C#N)cc3)CC2)cc1NC(=O)NCc1ccc(S(C)(=O)=O)cc1 [Example 243, 1-[5-[4-(4-cyanophenyl)piperidine-1-carbonyl]-2-methyl-phenyl]-3-[(4-methylsulfonylphenyl)methyl]urea]	99.9
Cc1ccc(C(=O)N2CCC(c3ccc(C#N)cc3)CC2)cc1NC(=O)NCCCn1cccn1 [Example 244, 1-[5-[4-(4-cyanophenyl)piperidine-1-carbonyl]-2-methyl-phenyl]-3-(3-pyrazol-1-ylpropyl)urea]	96.2
Cc1cc(CNC(=O)Nc2cc(C(=O)N3CCC(c4ccc(C#N)cc4)CC3)ccc2C)on1 [Example 245, 1-[5-[4-(4-cyanophenyl)piperidine-1-carbonyl]-2-methyl-phenyl]-3-[(3-methyl-1,2-oxazol-5-yl)methyl]urea]	94.3
Cc1cc(CNC(=O)Nc2cc(C(=O)N3CCC(c4ccc(C#N)cc4)CC3)ccc2C)no1 [Example 246, 1-[5-[4-(4-cyanophenyl)piperidine-1-carbonyl]-2-methyl-phenyl]-3-[(5-methyl-1,2-oxazol-3-yl)methyl]urea]	105
Cc1ccc(C(=O)N2CCC(c3ccc(C#N)cc3)CC2)cc1NC(=O)NCc1cccc(S(C)(=O)=O)c1 [Example 247, 1-[5-[4-(4-cyanophenyl)piperidine-1-carbonyl]-2-methyl-phenyl]-3-[(3-methylsulfonylphenyl)methyl]urea]	101
Cc1ccc(C(=O)N2CCC(c3ccc(C#N)cc3)CC2)cc1NC(=O)NCc1nccs1 [Example 248, 1-[5-[4-(4-cyanophenyl)piperidine-1-carbonyl]-2-methyl-phenyl]-3-(1,3-thiazol-2-ylmethyl)urea]	100
Cc1cccc(CNC(=O)Nc2cc(C(=O)N3CCC(c4ccc(C#N)cc4)CC3)ccc2C)n1 [Example 249, 1-[5-[4-(4-cyanophenyl)piperidine-1-carbonyl]-2-methyl-phenyl]-3-[(6-methylpyridin-2-yl)methyl]urea]	84.2
Cc1ccc(C(=O)N2CCC(c3ccc(C#N)cc3)CC2)cc1NC(=O)NCc1ncccc1C [Example 250, 3-[5-[4-(4-cyanophenyl)piperidine-1-carbonyl]-2-methyl-phenyl]-1-[(3-methylpyridin-2-yl)methyl]urea]	104
COc1ncccc1-c1cc(CNC(=O)Nc2cc(C(=O)N3CCC(c4ccc(C#N)cc4)CC3)ccc2C)on1 [Example 251, 1-[5-[4-(4-cyanophenyl)piperidine-1-carbonyl]-2-methyl-phenyl]-3-[[3-(2-methoxypyridin-3-yl)-1,2-oxazol-5-yl]methyl]urea]	88.4
COCCCCNC(=O)Nc1cc(C(=O)N2CCC(c3ccc(C#N)cc3)CC2)ccc1C [Example 252, 1-[5-[4-(4-cyanophenyl)piperidine-1-carbonyl]-2-methyl-phenyl]-3-(4-methoxybutyl)urea]	99.4

Compound	inhibition at 100 µM [%]
Cc1ccc(C(=O)N2CCC(c3ccc(C#N)cc3)CC2)cc1NC(=O)NCCN1CCC(F)(F)C1 [Example 254, 1-[5-[4-(4-cyanophenyl)piperidine-1-carbonyl]-2-methyl-phenyl]-3-[2-(3,3-difluoropyrrolidin-1-yl)ethyl]urea]	104
Cc1ccc(C(=O)N2CCC(c3ccc(C#N)cc3)CC2)cc1NC(=O)NC1CCC(N(C)C)CC1 (stereo not drawn) [Example 256, 1-[5-[4-(4-cyanophenyl)piperidine-1-carbonyl]-2-methyl-phenyl]-3-(4-dimethylaminocyclohexyl)urea]	98.7
Cc1ccc(C(=O)N2CCC(c3ccc(C#N)cc3)CC2)cc1NC(=O)NCc1cc(C)n(C)n1 [Example 257, 1-[5-[4-(4-cyanophenyl)piperidine-1-carbonyl]-2-methyl-phenyl]-3-[(1,5-dimethylpyrazol-3-yl)methyl]urea]	86.2
Cc1ccc(C(=O)N2CCC(c3ccc(C#N)cc3)CC2)cc1NC(=O)NCc1cn(C)nc1C [Example 258, 1-[5-[4-(4-cyanophenyl)piperidine-1-carbonyl]-2-methyl-phenyl]-3-[(1,3-dimethylpyrazol-4-yl)methyl]urea]	89
Cc1ccc(C(=O)N2CCC(c3ccc(C#N)cc3)CC2)cc1NC(=O)NC(C)(C)CN [Example 260, 3-(1-amino-2-methyl-propan-2-yl)-1-[5-[4-(4-cyanophenyl)piperidine-1-carbonyl]-2-methyl-phenyl]urea]	77.4
CC(=O)NC(C)(C)CNC(=O)Nc1cc(C(=O)N2CCC(c3ccc(C#N)cc3)CC2)ccc1C [Example 261, N-[1-[[5-[4-(4-cyanophenyl)piperidine-1-carbonyl]-2-methyl-phenyl]carbamoylamino]-2-methyl-propan-2-yl]acetamide]	85.9
CCC(=O)NC(C)(C)CNC(=O)Nc1cc(C(=O)N2CCC(c3ccc(C#N)cc3)CC2)ccc1C [Example 262, N-[1-[[5-[4-(4-cyanophenyl)piperidine-1-carbonyl]-2-methyl-phenyl]carbamoylamino]-2-methyl-propan-2-yl]propanamide]	98.7
Cc1ccc(C(=O)N2CCC(c3ccc(C#N)cc3)CC2)cc1NC(=O)NCC(C)(C)NC(=O)C(C)C [Example 263, N-[1-[[5-[4-(4-cyanophenyl)piperidine-1-carbonyl]-2-methyl-phenyl]carbamoylamino]-2-methyl-propan-2-yl]-2-methyl-propanamide]	79
Cc1csc(CNC(=O)Nc2cc(C(=O)N3CCC(c4ccc(C#N)cc4)CC3)ccc2C)n1 [Example 264, 1-[5-[4-(4-cyanophenyl)piperidine-1-carbonyl]-2-methyl-phenyl]-3-[(4-methyl-1,3-thiazol-2-yl)methyl]urea]	90.1
Cc1ccc(C(=O)N2CCC(c3ccc(C#N)cc3)CC2)cc1NC(=O)N[C@@H]1CCC(=O)NC1 [Example 265, 1-[5-[4-(4-cyanophenyl)piperidine-1-carbonyl]-2-methyl-phenyl]-3-[(3R)-6-oxo-3-piperidyl]urea]	90.6
Cc1ccc(C(=O)N2CCC(c3ccc(C#N)cc3)CC2)cc1NC(=O)NCc1ccncn1 [Example 266, 1-[5-[4-(4-cyanophenyl)piperidine-1-carbonyl]-2-methyl-phenyl]-3-(pyrimidin-4-ylmethyl)urea]	103
Cc1ccc(C(=O)N2CCC(c3ccc(C#N)cc3)CC2)cc1NC(=O)NCc1cn(C)cn1 [Example 267, 1-[5-[4-(4-cyanophenyl)piperidine-1-carbonyl]-2-methyl-phenyl]-3-[(1-methylimidazol-4-yl)methyl]urea]	90.9
Cc1ccc(C(=O)N2CCC(c3ccc(C#N)cc3)CC2)cc1NC(=O)NCC1CCN(C)C1 (stereo not drawn) [Example 268, 1-[5-[4-(4-cyanophenyl)piperidine-1-carbonyl]-2-methyl-phenyl]-3-[(1-methylpyrrolidin-3-yl)methyl]urea]	90.1
Cc1ccc(C(=O)N2CCC(c3ccc(C#N)cc3)CC2)cc1NC(=O)NCc1ncco1 [Example 269, 1-[5-[4-(4-cyanophenyl)piperidine-1-carbonyl]-2-methyl-phenyl]-3-(1,3-oxazol-2-ylmethyl)urea]	89.9
Cc1ccc(C(=O)N2CCC(c3ccc(C#N)cc3)CC2)cc1NC(=O)NCCN(C)C(=O)C(C)C [Example 271, N-[2-[[5-[4-(4-cyanophenyl)piperidine-1-carbonyl]-2-methyl-phenyl]carbamoylamino]ethyl]-N, 2-dimethyl-propanamide]	93.4
CCS(=O)(=O)N(C)CCNC(=O)Nc1cc(C(=O)N2CCC(c3ccc(C#N)cc3)CC2)ccc1C [Example 272, 3-[5-[4-(4-cyanophenyl)piperidine-1-carbonyl]-2-methyl-phenyl]-1-[2-(ethylsulfonyl-methyl-amino)ethyl]urea]	93.9
